This is an account of results in PubChem BioAssay AID248 (DTP/NCI, 2004).

“And” between values parts separate entries of the source, which are not always exact repeats. Equal entries are not always repeated. Toxic doses and inconclusive results are not listed.

The test concerns L1210 leukemia ip in BDF1 mice, survival T/C. In words: NCI In Vivo Anticancer Drug Screen. Data for tumor model L1210 Leukemia (intraperitoneal) in B6D2F1 (BDF1) mice. Conditions: endpoint: mean survival time, higher = longer survival. The method in brief:
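Mice bearing the transplanted tumor received compound or vehicle. Survival of the treated group was divided by that of the vehicle-treated control group to give the ratio.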

The mark [1] stands for this setting: dose: 100.0 mg/kg/injection, schedule: Q01DX009 (ip), vehicle: saline with Tween-80.
[2] abbreviates: dose: 200.0 mg/kg/injection, schedule: Q01DX009 (ip), vehicle: saline with Tween-80.
The mark [3] stands for this setting: dose: 50.0 mg/kg/injection, schedule: Q04DX003 (ip), vehicle: saline.
Setting [4] is: dose: 100.0 mg/kg/injection, schedule: Q04DX003 (ip), vehicle: saline.
The mark [5] stands for this setting: dose: 200.0 mg/kg/injection, schedule: Q04DX003 (ip), vehicle: saline.
[6] abbreviates: dose: 100.0 mg/kg/injection, schedule: Q04DX002 (ip), vehicle: saline with Tween-80.
The mark [7] stands for this setting: dose: 100.0 mg/kg/injection, schedule: Q04DX003 (ip), vehicle: saline with Tween-80.
The mark [8] stands for this setting: dose: 200.0 mg/kg/injection, schedule: Q04DX002 (ip), vehicle: saline with Tween-80.
The mark [9] stands for this setting: dose: 200.0 mg/kg/injection, schedule: Q04DX003 (ip), vehicle: saline with Tween-80.
[10] abbreviates: dose: 400.0 mg/kg/injection, schedule: Q01DX009 (ip), vehicle: saline with Tween-80.
Where [11] appears, read: dose: 400.0 mg/kg/injection, schedule: Q04DX002 (ip), vehicle: saline with Tween-80.
[12] abbreviates: dose: 400.0 mg/kg/injection, schedule: Q04DX003 (ip), vehicle: saline with Tween-80.
[13] abbreviates: dose: 100.0 mg/kg/injection, schedule: Q01DX009 (ip), vehicle: saline.
Where [14] appears, read: dose: 200.0 mg/kg/injection, schedule: Q01DX009 (ip), vehicle: saline.
Setting [15] is: dose: 400.0 mg/kg/injection, schedule: Q01DX009 (ip), vehicle: saline.
Setting [16] is: dose: 75.0 mg/kg/injection, schedule: Q01DX001 (ip), vehicle: carboxymethylcellulose (CMC).
Setting [17] is: dose: 150.0 mg/kg/injection, schedule: Q01DX001 (ip), vehicle: carboxymethylcellulose (CMC).
Where [18] appears, read: dose: 50.0 mg/kg/injection, schedule: Q04DX003 (ip), vehicle: saline with Tween-80.

As to `Cc1c(F)c(I)c(Br)c(C)c1[N+](=O)[O-]`, the T/C by setting is: (dose: 75.0 mg/kg/injection, schedule: Q04DX003 (ip), vehicle: Klucel (hydroxypropylcellulose) (HPC)) 104 % of control; (dose: 150.0 mg/kg/injection, schedule: Q04DX003 (ip), vehicle: Klucel (hydroxypropylcellulose) (HPC)) 88 % of control; (dose: 300.0 mg/kg/injection, schedule: Q04DX003 (ip), vehicle: Klucel (hydroxypropylcellulose) (HPC)) 93 % of control.

Regarding `CN(CCC#N)C(=O)Nc1ccc(Cl)c(Cl)c1`, the T/C (dose: 100.0 mg/kg/injection, schedule: Q04DX002 (ip), vehicle: other) was 109 % of control; the T/C (dose: 200.0 mg/kg/injection, schedule: Q04DX002 (ip), vehicle: other) is 102 % of control; the T/C (dose: 400.0 mg/kg/injection, schedule: Q04DX002 (ip), vehicle: other) was 102 % of control.

For the compound `CC(C)c1ccc2ccccc2c1`, the T/C is, setting by setting: under setting [1], 95 % of control; under setting [2], 107 % of control.

Turning to `Clc1ccc2c(c1)ncn1nnnc21`, the T/C under setting [3] was 95 % of control, the T/C under setting [4] is 104 % of control and the T/C under setting [5] is 93 % of control.

As for `O=C(Nc1cccc2ccccc12)OCc1ccco1`, the T/C (dose: 100.0 mg/kg/injection, schedule: Q01DX001 (ip), vehicle: saline with Tween-80) was 96 % of control; the T/C under setting [1] is 93 % of control and 96 % of control; the T/C under setting [6] is 96 % of control and 118 % of control; the T/C under setting [7] is 105 % of control; the T/C (dose: 200.0 mg/kg/injection, schedule: Q01DX001 (ip), vehicle: saline with Tween-80) was 97 % of control; the T/C under setting [2] was 100 % of control and 86 % of control. The T/C is 96 % of control and 91 % of control under setting [8]; 100 % of control under setting [9]; 103 % of control (dose: 400.0 mg/kg/injection, schedule: Q01DX001 (ip), vehicle: saline with Tween-80); 93 % of control and 94 % of control under setting [10]; 104 % of control under setting [11]; 103 % of control under setting [12].

As to `O=C(Nc1ccc(Cl)c(Cl)c1)OCC#CCOC(=O)Nc1ccc(Cl)c(Cl)c1`, the T/C under setting [13] is 99 % of control, the T/C under setting [14] is 91 % of control and the T/C under setting [15] is 88 % of control.

For `CCCC(=O)N(C(=O)CCC)c1cc2c3c(c1)CCCN3CCC2`, the T/C (dose: 12.5 mg/kg/injection, schedule: Q04DX003 (ip), vehicle: Klucel (hydroxypropylcellulose) (HPC)) was 96 % of control; the T/C (dose: 25.0 mg/kg/injection, schedule: Q01DX009 (ip), vehicle: Klucel (hydroxypropylcellulose) (HPC)) was 95 % of control; the T/C (dose: 25.0 mg/kg/injection, schedule: Q04DX003 (ip), vehicle: Klucel (hydroxypropylcellulose) (HPC)) was 93 % of control; the T/C (dose: 50.0 mg/kg/injection, schedule: Q01DX009 (ip), vehicle: Klucel (hydroxypropylcellulose) (HPC)) was 92 % of control; the T/C (dose: 50.0 mg/kg/injection, schedule: Q04DX003 (ip), vehicle: Klucel (hydroxypropylcellulose) (HPC)) was 95 % of control; the T/C under setting [4] is 93 % of control.

As to `O=C(O)C1C2OC(C(Br)C2Br)C1C(=O)O` (stereo not drawn), the T/C runs as follows: (dose: 100.0 mg/kg/injection, schedule: Q04DX002 (ip), vehicle: Klucel (hydroxypropylcellulose) (HPC)) 106 % of control; under setting [7], 93 % of control; (dose: 200.0 mg/kg/injection, schedule: Q04DX002 (ip), vehicle: Klucel (hydroxypropylcellulose) (HPC)) 98 % of control; under setting [9], 95 % of control; (dose: 400.0 mg/kg/injection, schedule: Q04DX002 (ip), vehicle: Klucel (hydroxypropylcellulose) (HPC)) 95 % of control.

For `NCCCOC12CC3CC(CC(C3)C1)C2`, the T/C (dose: 10.0 mg/kg/injection, schedule: Q04DX002 (ip), vehicle: saline) was 106 % of control; the T/C (dose: 20.0 mg/kg/injection, schedule: Q04DX002 (ip), vehicle: saline) was 117 % of control; the T/C (dose: 40.0 mg/kg/injection, schedule: Q04DX002 (ip), vehicle: saline) is 102 % of control.

`COc1ccc(C(O)C2c3c(cc4c(c3OC)OCO4)CCN2C)c(CO)c1OC` (stereo not drawn): the T/C under setting [16] is 100 % of control and the T/C under setting [17] is 105 % of control.

Regarding `OC(Cc1cncc(CC(O)(C(F)(F)F)C(F)(F)F)n1)(C(F)(F)F)C(F)(F)F`, the T/C is, setting by setting: under setting [13], 95 % of control; under setting [4], 96 % of control; under setting [14], 105 % of control; under setting [5], 92 % of control; under setting [15], 98 % of control; (dose: 400.0 mg/kg/injection, schedule: Q04DX003 (ip), vehicle: saline) 97 % of control.

`COC1(c2ccc(C(F)(F)F)cc2)OC1(C)C` (stereo not drawn): the T/C under setting [1] was 98 % of control; the T/C under setting [7] is 96 % of control; the T/C under setting [2] was 100 % of control; the T/C under setting [9] was 102 % of control; the T/C under setting [10] was 104 % of control; the T/C under setting [12] was 102 % of control.

In the case of `O=[N+]([O-])c1ccccc1C1CCCCC1`, the T/C was 89 % of control under setting [6], 93 % of control under setting [8] and 100 % of control under setting [11].

Take `CNC(C)(C)C(SSSC(c1ccc(Cl)cc1)C(C)(C)NC)c1ccc(Cl)cc1` (stereo not drawn): the T/C (dose: 12.5 mg/kg/injection, schedule: Q01DX009 (ip), vehicle: saline with Tween-80) is 103 % of control; the T/C (dose: 12.5 mg/kg/injection, schedule: Q04DX003 (ip), vehicle: saline with Tween-80) was 98 % of control; the T/C (dose: 25.0 mg/kg/injection, schedule: Q01DX009 (ip), vehicle: saline with Tween-80) was 98 % of control; the T/C (dose: 25.0 mg/kg/injection, schedule: Q04DX003 (ip), vehicle: saline with Tween-80) is 100 % of control; the T/C (dose: 50.0 mg/kg/injection, schedule: Q01DX009 (ip), vehicle: saline with Tween-80) is 97 % of control; the T/C under setting [18] was 96 % of control.

For the compound `O=C1C(=O)c2ccccc2C(O)=C1Sc1ccc(Cl)cc1`, the T/C runs as follows: under setting [16], 103 % of control; under setting [17], 98 % of control; (dose: 300.0 mg/kg/injection, schedule: Q01DX001 (ip), vehicle: carboxymethylcellulose (CMC)) 98 % of control.

For the compound `NC(=O)c1c(Br)n(C2OC(CO)C(O)C2O)c2ncnc(N)c12` (stereo not drawn), the T/C runs as follows: under setting [18], 102 % of control; (dose: 100.0 mg/kg/injection, schedule: Q01DX001 (ip), vehicle: saline) 121 % of control; (dose: 178.0 mg/kg/injection, schedule: Q01DX001 (ip), vehicle: saline) 111 % of control; (dose: 267.0 mg/kg/injection, schedule: Q01DX001 (ip), vehicle: saline) 109 % of control; (dose: 400.0 mg/kg/injection, schedule: Q01DX001 (ip), vehicle: saline) 120 % of control; under setting [12], 150 % of control.

On to `O=C(O)C1C(C(=O)O)C2(Cl)C(Cl)=C(Cl)C1(Cl)C2(Cl)Cl.[Fe]` (stereo not drawn), for which the T/C is 93 % of control (dose: 25.0 mg/kg/injection, schedule: Q01DX009 (ip), vehicle: saline sonified); 94 % of control (dose: 25.0 mg/kg/injection, schedule: Q04DX003 (ip), vehicle: saline); 92 % of control (dose: 44.0 mg/kg/injection, schedule: Q01DX Z (ip), vehicle: carboxymethylcellulose (CMC)); 104 % of control (dose: 50.0 mg/kg/injection, schedule: Q01DX001 (ip), vehicle: saline sonified); 93 % of control (dose: 50.0 mg/kg/injection, schedule: Q01DX009 (ip), vehicle: saline sonified); 95 % of control and 86 % of control under setting [3]. For the same compound, the T/C reads like this: (dose: 67.0 mg/kg/injection, schedule: Q01DX Z (ip), vehicle: carboxymethylcellulose (CMC)) 91 % of control; (dose: 100.0 mg/kg/injection, schedule: Q01DX001 (ip), vehicle: saline sonified) 102 % of control; (dose: 100.0 mg/kg/injection, schedule: Q01DX009 (ip), vehicle: saline sonified) 93 % of control; under setting [4], 103 % of control; (dose: 200.0 mg/kg/injection, schedule: Q01DX001 (ip), vehicle: saline sonified) 98 % of control.
